From patent US20020032177A1, “Use of D-chiro-inositol in the treatment of conditions associated with hypothalamic gene expression” (Insmed Pharmaceuticals, Inc., priority 2000, published 2002)
Like-named read-outs stand apart in the source and are kept apart here.

Tests used:
[1] = women with PCOS; cited from earlier work
[2] = obese rodents and humans; cited from earlier work
[3] = Adiposity of mice after DCI administration; assay type: in vivo; conditions: fed and 48-hour fasted
From the text: (§1) FIG. 3 and FIG. 4 depict, respectively, the effect of DCI administration on leptin mRNA and plasma leptin in mice. […] Thus, DCI enhances the rate of translation and secretion of leptin.

[4] = system: leptin mRNA; experiment: Leptin mRNA in mice after DCI administration; assay type: in vivo; conditions: FIG. 3
From the text: as §1

[5] = system: plasma leptin; experiment: Plasma leptin in mice after DCI administration; assay type: in vivo; conditions: FIG. 4
From the text: as §1

[6] = system: NPY mRNA; experiment: NPY mRNA levels in diet-induced obese mice; assay type: in vivo
From the text: (§2) A high calorie diet (compositionally equivalent to the typical American diet) will induce obesity and diabetes in some mouse strains (e.g., C57BL/6J) but not others (e.g., A/J). […] These changes in hypothalamic gene expression are ultimately regulated by insulin, although part of the effect may be mediated indirectly by the effect of insulin on leptin synthesis in fat, which then feeds back to hypothalamus to enhance the direct effect of insulin on the hypothalamus. By enhancing the rate of translation and secretion of leptin this hypothalamic response is blocked or attenuated.
(§3) FIG. 1 and FIG. 2 depicts the results of studies in the diet induced mice on NPY and AGRP mRNA levels. DCI leads to lower NPY and AGRP mRNA.

[7] = system: AGRP mRNA; experiment: AGRP mRNA levels in diet-induced obese mice; assay type: in vivo; conditions: FIG. 2
From the text: as §2, §3

[8] = lean (wild-type) mice, daily injections; cited from earlier work
[9] = ob/ob mice, daily injections; cited from earlier work
[10] = system: leptin mRNA; conditions: elevation of leptin by injection; cited from earlier work

## CN(C)C(=N)N=C(N)N [Metformin]
[1]
  fertility: partially restores
[2]
  food intake: decreases

## OC1C(O)C(O)C(O)C(O)C1O [DCI, D-chiro-inositol]
[3]
  adiposity: without increasing adiposity
[4]
  leptin mRNA: decrease
[5]; 48-hour fasted mice
  increase of plasma leptin: over 5 fold
[5]; fed mice
  increase of plasma leptin: over 2 fold
[6]; diet induced mice, FIG. 1
  NPY mRNA: lower
[6]; fasted state, diet-induced obese mice
  effect of fasting on NPY and AGRP mRNA: blocks or attenuates the effect of fasting
[7]
  AGRP mRNA: lower

B1: leptin: product of the obese (ob) gene, secreted by adipose cells; given as daily injections of recombinant protein (protein, UniProt P41160 22-167, looked up)
Leptin: VPIQKVQDDTKTLIKTIVTRINDISHTQSVSAKQRVTGLDFIPGLHPILSLSKMDQTLAVYQQVLTSLPSQNVLQIANDLENLRDLLHLLAFSKSCSLPQTSGLQKPESLDGVLEASLYSTEVVALSRLQGSLQDILQQLDVSPEC
[8]
  food intake and body weight: modest decreases
[9]
  body weight and fat: reduction
  food intake: markedly inhibited
[10]
  leptin mRNA: pronounced decreases
